Source: ChEMBL document CHEMBL1641518, “Synthesis and biological evaluation of tubulysin D analogs related to stereoisomers of tubuvaline” (Bioorg Med Chem Lett, 2011)

Legend:
HCT-116 = assay: Cytotoxicity against human HCT116 cells after 72 hrs by MTT assay; format: functional, cell-based; settings: HCT-116, 72 h
A549 = assay: Cytotoxicity against human A549 cells after 72 hrs by MTT assay; format: functional, cell-based; settings: A549, 72 h
MCF7 = assay: Cytotoxicity against human MCF7 cells after 72 hrs by MTT assay; format: functional, cell-based; settings: MCF7, 72 h
HL-60 = assay: Cytotoxicity against human HL60 cells after 72 hrs by MTT assay; format: functional, cell-based; settings: HL-60, 72 h
Tubulin = Tubulin (Sus scrofa, UniProt P02554+P02550); assay: Inhibition of porcine brain tubulin polymerization by microtubule assembly assay

CC[C@H](C)[C@H](NC(=O)[C@H]1CCCCN1C)C(=O)N[C@H](C[C@H](OC(C)=O)c1nc(C(=O)N[C@@H](Cc2ccccc2)C[C@H](C)C(=O)O)cs1)C(C)C [11-EPI-TUBULYSIN D]
IC50 (HCT-116): 13 nM | IC50 (A549): 43 nM | IC50 (MCF7): 280 nM | IC50 (HL-60): 3.1 nM | IC50 (Tubulin): 1400 nM

CC[C@H](C)[C@H](NC(=O)[C@H]1CCCCN1C)C(=O)N[C@@H](C[C@H](OC(C)=O)c1nc(C(=O)N[C@@H](Cc2ccccc2)C[C@H](C)C(=O)O)cs1)C(C)C
IC50 (HCT-116): > 10000 nM | IC50 (A549): > 10000 nM | IC50 (MCF7): > 10000 nM | IC50 (HL-60): 3600 nM | IC50 (Tubulin): 6300 nM

CC[C@]1(O)C[C@@H]2CN(CCc3c([nH]c4ccccc34)[C@@](C(=O)OC)(c3cc4c(cc3OC)N(C)[C@H]3[C@@](O)(C(=O)OC)[C@H](OC(C)=O)[C@]5(CC)C=CCN6CC[C@]43[C@@H]65)C2)C1 [VINBLASTINE]
IC50 (HCT-116): 27 nM | IC50 (A549): 17 nM | IC50 (MCF7): 0.79 nM | IC50 (HL-60): 1 nM

CC[C@H](C)[C@H](NC(=O)[C@H]1CCCCN1C)C(=O)N[C@@H](C[C@@H](OC(C)=O)c1nc(C(=O)N[C@@H](Cc2ccccc2)C[C@H](C)C(=O)O)cs1)C(C)C [13-EPI-TUBULYSIN D]
IC50 (HCT-116): 920 nM | IC50 (A549): 1200 nM | IC50 (MCF7): 240 nM | IC50 (HL-60): 98 nM | IC50 (Tubulin): 1700 nM

CC[C@H](C)[C@H](NC(=O)[C@H]1CCCCN1C)C(=O)N(COC(=O)CC(C)C)[C@H](C[C@@H](OC(C)=O)c1nc(C(=O)N[C@@H](Cc2ccccc2)C[C@H](C)C(=O)O)cs1)C(C)C [TUBULYSIN D]
IC50 (HCT-116): 0.0031 nM | IC50 (A549): 0.013 nM | IC50 (MCF7): 0.67 nM | IC50 (HL-60): 0.0047 nM | IC50 (Tubulin): 1700 nM
